Consider two compounds from paper PMC2962730 (Journal of neurochemistry, 2010).

For test [1], the target named is T1, hVAChT W325H (Homo sapiens, UniProt Q16572, W325H).
T1 sequence (Q16572 1-532 W325H): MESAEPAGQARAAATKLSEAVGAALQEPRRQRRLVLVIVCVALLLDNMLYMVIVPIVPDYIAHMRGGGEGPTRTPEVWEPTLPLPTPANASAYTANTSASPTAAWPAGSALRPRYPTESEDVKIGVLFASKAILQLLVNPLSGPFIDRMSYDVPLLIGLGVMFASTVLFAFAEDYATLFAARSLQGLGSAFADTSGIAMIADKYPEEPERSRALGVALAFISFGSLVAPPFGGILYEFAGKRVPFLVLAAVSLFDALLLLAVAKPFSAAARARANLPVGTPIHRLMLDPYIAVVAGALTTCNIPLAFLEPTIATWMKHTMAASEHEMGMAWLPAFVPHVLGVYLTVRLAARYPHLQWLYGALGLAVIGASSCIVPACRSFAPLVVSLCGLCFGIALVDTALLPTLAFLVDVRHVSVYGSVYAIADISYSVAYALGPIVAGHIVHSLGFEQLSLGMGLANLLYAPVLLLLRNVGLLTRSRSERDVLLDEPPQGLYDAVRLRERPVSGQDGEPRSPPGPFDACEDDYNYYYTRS
Put plainly: [3H]vesamicol saturation binding. The settings on record: pH 7.4.

For the next test, the target named is T2, hVAChT W331A (Homo sapiens, UniProt Q16572, W331A).
T2 sequence (Q16572 1-532 W331A): T1 sequence (Q16572 1-532 W325H) with H325W, W331A
Put plainly: [3H]vesamicol saturation binding. The conditions noted are these: pH 7.4.

Another test concerns the target T3, hVAChT Y60W (Homo sapiens, UniProt Q16572, Y60W).
T3 sequence (Q16572 1-532 Y60W): T1 sequence (Q16572 1-532 W325H) with Y60W, H325W
Put plainly: [3H]ACh transport. The class given is biochemical.

Test [2] concerns the target T1, hVAChT W325H. Put plainly: ACh equilibrium binding by competition against [3H]vesamicol.
The target of another test is T4, hVAChT C388A (Homo sapiens, UniProt Q16572, C388A).
T4 sequence (Q16572 1-532 C388A): T1 sequence (Q16572 1-532 W325H) with H325W, C388A
Described as above.

The target of the next test is T5, hVAChT A330V (Homo sapiens, UniProt Q16572, A330V).
T5 sequence (Q16572 1-532 A330V): T1 sequence (Q16572 1-532 W325H) with H325W, A330V
The test is described as above.

Molecules are shown by their SMILES. Numbering of substitutions follows the chain as printed.

On to `O[C@@H]1CCCC[C@H]1N1CCC(c2ccccc2)CC1` (racemic) [vesamicol, ( )-trans-2-(4-phenylpiperidino)cyclohexanol], for which the “Bmax, maximal specific [3H]vesamicol binding (VAChT expression level)” value at hVAChT W325H [1] worked out at 22 ± 1 pmol/mg; on hVAChT W331A it was 37 ± 2 pmol/mg.
With `CC(=O)OCC[N+](C)(C)C` [ACh, acetylcholine], the “Vmax/Bmax, ACh transport normalized to Bmax” value at hVAChT Y60W (pH 7.4) stood at 7.9 ± 0.8 min⁻¹. For the same compound, the Km at hVAChT Y60W (read-out: KM, Michaelis-Menten constant for ACh transport, pH 7.4) was 920 ± 170 µM. Also, the Kd worked out at 5.5 ± 0.9 mM on hVAChT W325H [2], 17 ± 4 mM at hVAChT C388A and 12 ± 5 mM on hVAChT A330V. Moreover, the “FHA, fraction of the ACh sites that have high affinity” value on hVAChT W325H [2] (W325H hVAChT, pH 7.4) came to 0.82± 0.06; on hVAChT C388A (C388A hVAChT, pH 7.4) it was 0.88 ± 0.08; on hVAChT A330V (A330V hVAChT, pH 7.4), 0.44 ± 0.11. In addition, on hVAChT A330V (A330V hVAChT vs wild-type), the “decrease in the fraction of high-affinity binding by ACh” value worked out at 2 fold.

Broadly, the Km is the concentration of substrate that gives half-maximal velocity. Usually Kd stands for the constant that tells how readily two partners part at equilibrium.
